{"source": "patent US11446342B2", "about": "“Composite probiotics and use thereof” (INFINITUS (CHINA) COMPANY LTD., priority 2019, dated 2022)", "key": {"[1]": {"tested_on": "mice having high-fat diet induced metabolic syndrome", "test": "Liver glutathione (GSH) in high-fat diet-induced metabolic syndrome", "assay_type": "in vivo, C57BL/6J mice", "conditions": "intragastric daily, high-fat feed; probiotics total 1.0×10^9 CFU/mL", "procedure": "(§1) The experimental animals were 48 5-week old SPF grade C57BL/6 male mice, which were purchased from Shanghai Slack Laboratory Animal Center. The high-fat feed was purchased from Nantong Trophic Animal Feed High-tech Co., Ltd. The model group was fed with TP23300 high-fat feed, and the normal control group was fed with TP23302 control feed. After the mice were adaptively feed for 7 days, the experiment started. The animals were given free access to food and water, the temperature was 22±2° C., the humidity was 55±5%, and the illumination was alternately 12 h bright and dark.\n(§2) Each group contains 6 mice. The feeding environmental temperature was 20-26° C., the humidity was 40%-70% and the padding was replaced twice a week. In the Bifidobacterium adolescentis CCFM8630, Lactobacillus reuteri CCFM8631, Lactobacillus rhamnosus CCFM1044 and Lactobacillus casei CCFM711 compounding group, the ratio of viable count of Bifidobacterium adolescentis CCFM8630, Lactobacillus reuteri CCFM8631, Lactobacillus rhamnosus CCFM1044 and Lactobacillus casei CCFM711 was 1:1:1:1. Each mouse was administered intragastrically each day with probiotics with a concentration of 1.0×10^9 CFU/mL, which was resuspended in 3% sucrose solution, and the volume by intragastric administration was 0.2 mL, i.e., the total amount of probiotics administered intragastrically to each mouse was 2×10^8 CFU each day. […]"}, "[2]": {"tested_on": "mice having high-fat diet induced metabolic syndrome", "test": "Liver superoxide dismutase (SOD) in high-fat diet-induced metabolic syndrome", "assay_type": "in vivo, C57BL/6J mice", "conditions": "intragastric daily, high-fat feed; probiotics total 1.0×10^9 CFU/mL", "procedure": "as §1, §2"}}}
{"smiles": "CN(CCOc1ccc(CC2SC(=O)NC2=O)cc1)c1ccccn1", "note": "(centres unmarked) [RH, rosiglitazone]", "values": [{"measurement": "extent of increase of liver GSH level compared with the HF group", "setting": "[1]", "value": 6.88, "unit": "μmoL/g prot"}, {"measurement": "extent of increase of liver SOD activity compared with the HF group", "setting": "[2]", "value": 70.07, "unit": "U/mg prot"}]}
